Tests used:
C. parapsilopsis = details: C. parapsilosis, clinical strain; cited from earlier work
A. terreus = details: clinical strain; cited from earlier work
C. lusitaniae = details: clinical strain; cited from earlier work
A. niger = details: clinical strain; cited from earlier work
C. tropicalis = details: clinical strain; cited from earlier work
A. fumigatus = details: clinical strain; cited from earlier work
A. flavus = details: clinical strain; cited from earlier work
C. albicans = details: clinical strain; cited from earlier work
C. glabrata = details: clinical strain; cited from earlier work
C. guilliermondii = details: C. guillermondii, clinical strain; cited from earlier work
C. Krusei = details: clinical strain; cited from earlier work
T. pulmonis = assay: Kirby-Bauer disk diffusion susceptibility test; assay type: cell-based, Tsukamurella pulmonis
Method: (§1) Bacterial strains, from clinical origin, were supplied by the National Center for Microbiology, Institute of Health Carlos III (Majadahonda, Madrid). They are detailed in Table I.
(§2) Bacterial cells suspension in sterile saline was prepared from a culture of 24-72 h, depending on bacterial species, in Mueller-Hinton Agar with 5% sheep blood. Each suspension was adjusted to a fixed size inoculum of 1-5×10^8 CFU/ml with a spectrophotometer (Ferraro, M J National Committee for Clinical Laboratory Standards. 2000).
(§3) Kirby-Bauer disk diffusion susceptibility test protocol was utilized to determine the sensitivity or resistance of pathogenic bacteria against the compounds and others antibiotics. The absence of growth around the disks is an indirect measure of the ability of this compound to inhibit an organism (Kirby, W. et al., Antibiotics Annu. 1956-1957:892). After 18 to 72 hours of incubation at […], with or without CO2, under aerobic or anaerobic conditions, depending on the bacterial species, halo of growth inhibition were obtained and evaluated.
(§4) Interpretation of susceptibility and resistance was based on the presence or absence of a zone of inhibition surrounding the disk. Kirby-Bauer disk diffusion susceptibility test is a common method which uses antibiotic-impregnated wafers to test whether bacteria are affected by antibiotics. The size of the zone of inhibition depends on how effective the antibiotic is at stopping the growth of the bacterium. A stronger antibiotic will create a larger zone, because a lower concentration of the antibiotic is enough to stop growth.

E. coli = assay: Kirby-Bauer disk diffusion susceptibility test; assay type: cell-based
Method: as §1, §2, §3, §4

A. baumannii = assay: Kirby-Bauer disk diffusion susceptibility test; assay type: cell-based
Method: as §1, §2, §3, §4

N. cyriacigeorgica = assay: Kirby-Bauer disk diffusion susceptibility test; assay type: cell-based
Method: as §1, §2, §3, §4

M. chelonae = assay: Kirby-Bauer disk diffusion susceptibility test; assay type: cell-based; details: M. chelonae strain 870, isolation year 2011
Method: as §1, §2, §3, §4

M. fortuitum = assay: Kirby-Bauer disk diffusion susceptibility test; assay type: cell-based; details: M. fortuitum strain 1080, isolation year 2011
Method: as §1, §2, §3, §4

N. carnea = assay: Kirby-Bauer disk diffusion susceptibility test; assay type: cell-based, Nocardia carnea
Method: as §1, §2, §3, §4

M. abscessus = assay: Kirby-Bauer disk diffusion susceptibility test; assay type: cell-based, Mycobacterium abscessus; details: M. abscessus strain 690, isolation year 2012
Method: as §1, §2, §3, §4

P. aeruginosa = assay: Kirby-Bauer disk diffusion susceptibility test; assay type: cell-based; details: P. aeruginosa strain 96, isolation year 2014
Method: as §1, §2, §3, §4

E. faecalis = assay: Kirby-Bauer disk diffusion susceptibility test; assay type: cell-based
Method: as §1, §2, §3, §4

E. faecium = assay: Kirby-Bauer disk diffusion susceptibility test; assay type: cell-based
Method: as §1, §2, §3, §4

B. cereus = assay: Kirby-Bauer disk diffusion susceptibility test; assay type: cell-based, Bacillus cereus
Method: as §1, §2, §3, §4

[1] = T. pulmonis strain 40, isolation year 2015
[2] = T. pulmonis strain 1991, isolation year 2009
[3] = E. coli strain 29, isolation year 2012
[4] = E. coli strain 305, isolation year 2008
[5] = N cyriacigeorgica strain 199, isolation year 2005
[6] = N. cyriacigeorgica strain 30, isolation year 2005
[7] = N. carnea strain 40, isolation year 2011
[8] = N. carnea strain 769, isolation year 2009
Note: key: I = intermediate activity; S = susceptibility; R = Resistance.

Compound | Characteristics of the strains: susceptibility to the antifungal (C. parapsilopsis) | Characteristics of the strains: susceptibility to the antifungal (A. terreus) | Characteristics of the strains: susceptibility to the antifungal (C. lusitaniae) | Characteristics of the strains: susceptibility to the antifungal (A. niger) | Characteristics of the strains: susceptibility to the antifungal (C. tropicalis) | Characteristics of the strains: susceptibility to the antifungal (A. fumigatus) | Characteristics of the strains: susceptibility to the antifungal (A. flavus) | Characteristics of the strains: susceptibility to the antifungal (C. albicans) | Characteristics of the strains: susceptibility to the antifungal (C. glabrata) | Characteristics of the strains: susceptibility to the antifungal (C. guilliermondii) | Characteristics of the strains: susceptibility to the antifungal (C. Krusei) | Sensitivity or resistance of the strain to the antibiotic (M. chelonae) | Sensitivity or resistance of the strain to the antibiotic (M. fortuitum) | Sensitivity or resistance of the strain to the antibiotic (M. abscessus) | other results
C[C@@H]1[C@H](O)[C@@H](C)/C=C/C=C/C=C/C=C/C=C/C=C/C=C/[C@H](O[C@@H]2O[C@H](C)[C@@H](O)[C@H](N)[C@@H]2O)C[C@@H]2O[C@](O)(C[C@@H](O)C[C@@H](O)[C@H](O)CC[C@@H](O)C[C@@H](O)CC(=O)O[C@H]1C)C[C@H](O)[C@H]2C(=O)O [Amphotericin B] | S | I | I | S | S | S | I | I | S | R | I | – | – | – | –
Clc1ccccc1C(c1ccccc1)(c1ccccc1)n1ccnc1 [Clotrimazole] | S | S | S | S | S | S | S | S | S | R | S | – | – | – | –
OC(Cn1cncn1)(Cn1cncn1)c1ccc(F)cc1F [Fluconazole] | S | R | S | R | S | R | R | S | S | R | S | – | – | – | –
C[C@@H](O)[C@H]1C(=O)N2C(C(=O)O)=C(SCCN=CN)C[C@H]12 [IMP, Imipenem] | – | – | – | – | – | – | – | – | – | – | – | R | R | R | Sensitivity or resistance of the strain to the antibiotic (T. pulmonis; [1]): S; Sensitivity or resistance of the strain to the antibiotic (T. pulmonis; [2]): S; Sensitivity or resistance of the strain to the antibiotic (E. coli; [3]): S; Sensitivity or resistance of the strain to the antibiotic (E. coli; [4]): S; Sensitivity or resistance of the strain to the antibiotic (A. baumannii; A. baumannii strain 300, isolation year 2001): R; Sensitivity or resistance of the strain to the antibiotic (A. baumannii; A. baumannii strain 1301, isolation year 2009): S; Sensitivity or resistance of the strain to the antibiotic (N. cyriacigeorgica; [5]): R; Sensitivity or resistance of the strain to the antibiotic (N. cyriacigeorgica; [6]): S; Sensitivity or resistance of the strain to the antibiotic (N. carnea; [7]): R; Sensitivity or resistance of the strain to the antibiotic (N. carnea; [8]): S
CC(=O)N1CCN(c2ccc(OCC3COC(Cn4ccnc4)(c4ccc(Cl)cc4Cl)O3)cc2)CC1 (stereo not drawn) [Ketoconazole] | S | S | S | S | S | S | S | S | S | R | S | – | – | – | –
CC(=O)NC[C@H]1CN(c2ccc(N3CCOCC3)c(F)c2)C(=O)O1 [LIN, Linezolid] | – | – | – | – | – | – | – | – | – | – | – | R | R | S | Sensitivity or resistance of the strain to the antibiotic (T. pulmonis; [1]): R; Sensitivity or resistance of the strain to the antibiotic (T. pulmonis; [2]): S; Sensitivity or resistance of the strain to the antibiotic (N. cyriacigeorgica; [5]): S; Sensitivity or resistance of the strain to the antibiotic (N. cyriacigeorgica; [6]): S; Sensitivity or resistance of the strain to the antibiotic (P. aeruginosa): S; Sensitivity or resistance of the strain to the antibiotic (N. carnea; [7]): S; Sensitivity or resistance of the strain to the antibiotic (N. carnea; [8]): S
Penicillin | – | – | – | – | – | – | – | – | – | – | – | R | R | R | Sensitivity or resistance of the strain to the antibiotic (E. faecalis; E. faecalis strain 52, isolation year 2006): R; Sensitivity or resistance of the strain to the antibiotic (E. faecalis; E. faecalis strain 1052, isolation year 2008): R; Sensitivity or resistance of the strain to the antibiotic (E. faecium; E. faecium strain 26, isolation year 2012): R; Sensitivity or resistance of the strain to the antibiotic (E. faecium; E. faecium strain 209, isolation year 2015): R; Sensitivity or resistance of the strain to the antibiotic (E. coli; [3]): R; Sensitivity or resistance of the strain to the antibiotic (E. coli; [4]): R; Sensitivity or resistance of the strain to the antibiotic (B. cereus; B. cereus strain 25, isolation year 2014): S; Sensitivity or resistance of the strain to the antibiotic (B. cereus; B. cereus strain 182, isolation year 2013): S
